Measurements from PMC10115808, “Parahydrogen-induced polarization allows 2000-fold signal enhancement in biologically active derivatives of the peptide-based drug octreotide” (Scientific Reports, 2023).
“Also recorded” adds a separate entry of the source.

How the values were obtained:
A549 cells = assay: Cell binding assay of TAMRA-conjugated octreotide variants on A549 cells (flow cytometry); set-up: species or system human; conditions: neat TAMRA versus fluorescence marked octreotide 1, Fig. S-23
Method: (§1) In order to check whether the modifications on the octreotide have an influence on its interaction with somatostatin receptors in living cells, a binding study on different human cell lines was performed. For the detection of the bound peptides, octreotide and the derivatives were further modified by attaching the fluorophore TAMRA to the N terminus. To prevent the fluorophore from interacting with the binding site of octreotide derivatives, a 4,7,10-trioxa-1,13-tridecanediamine succinate (TTDS) spacer was added between the peptide N terminus and the N-hydroxy succinimide (NHS)-activated fluorophore. Both, the linker and the fluorophore, were attached to the peptides by manual SPPS (Fig. 5).
(§2) Human lung cancer cells A549 and human embryonic kidney cells HEK293 were utilized for the binding studies. A549 are widely used in binding studies with somatostatin analogues[61],[62]. […]
(§3) A549 cells (DSMZ ACC 107) and HEK293 cell s (DSMZ ACC 308) were cultured in complete growth medium consisting of Dulbecco’s MEM with 10 % fetal bovine serum (FBS) and 1x penicillin/streptomycin. […] After incubation, the cells were washed three times with ice -cold PBS-F. Using a CytoFlexS flow cytometer, PE -fluorescence was measured. […]

HEK293 cells = assay: Cell binding assay of TAMRA-conjugated octreotide variants on HEK293 cells (flow cytometry); set-up: species or system human; conditions: neat TAMRA versus fluorescence marked octreotide 1, Fig. S-24
Method: as §1, §2, §3

TAMRA
Binding efficiency (fluorescence) of TAMRA alone compared to TAMRA-linker-octreotide (A549 cells): about half the fluorescence; also recorded: about two times reduced binding efficiency | Binding efficiency (fluorescence) of TAMRA alone compared to TAMRA-linker-octreotide (HEK293 cells): about half the fluorescence; also recorded: about two times reduced binding efficiency
